Measurements taken from patent US4927937A, “Pharmacologically active ε-valerolactams” (Chinese Academy of Medical Science, priority 1986, dated 1990).

Assays:
[1] = animal tests, literature report; cited from earlier work
[2] = tested on: CCl4 intoxicated mice (SGPT); test: Hepatoprotective action: SGPT of CCl4 intoxicated mice; format: in vivo, mouse (male Kunming strain); conditions: 250 mg/kg × 2 orally at 8 h interval, 0.1% CCl4 10 ml/kg injected 24 h after second dose, 9 mice per group; P <0.01; control 1678 + 261
Protocol: Male Kunming strain mice weighing 18-22 grams were used throughout the experiments. The compounds to be tested were suspended in 5% Tween 80 and given orally by gavage. The vehicle of 5% Tween 80 solution was administered to control mice via the same route. In in vitro experiments, the compounds were dissolved in dimethylformamide and added directly into the incubation mixture.
Mice were divided into several groups. The control group was administered the vehicle. The other groups were given two doses (250 mg/kg) of the compound at an interval of 8 h, respectively. 10 ml/kg of 0.1% CCl4 in vegetable oil was injected in 24 h after the second administration of the compound. The mice were fasted for 16 h and sacrificed by decapitation. SGPT and liver lipids were determined. A piece of liver was processed into sections for pathological observation.

[3] = tested on: male rats, retrograde amnesia under hypoxia; test: Retrograde amnesia (rat) under hypoxic conditions; format: in vivo; conditions: 100 mg/kg p.o., hypoxia 3.8% oxygen, 15 animals per group
Protocol: The apparatus (39 cm long, 21 cm high, and 21 cm wide) consists of two compartments, one made of translucent plastic (29 cm long) and the other one painted black (10 cm long) It has a bottom of spaced metal grids which are connected to a stimulating device delivered 1.6 mA for 20 s.
Both compartments are connected via a door which can be closed.
Male rats (100-120 g body weight) will be placed individually in the large compartment and allowed to explore both compartments for 3 min.
Thereafter the animals are placed in the small (dark) compartment, the connecting door is closed and the foot shock is delivered. After that the animals are put in an air-tight cage which is prefused by a gas mixture containing 3.8% oxygen and 96.2% nitrogen.
24 hours later the rats are placed again in the bright compartment. The observation time is 3 min.
One experiment is performed in three groups of 15 animals each:
Group A: control group, not exposed to hypoxia
Group B: control group, receiving hypoxia after first training
Group C: treated animals, receiving hypoxia after first training.
Evaluation: the times the animals need to enter the dark compartment are measured in seconds. […]
The time difference between the control group B and the treated group C is calculated in percent (C-B=X%). X is considered to be measured for the potency of the antiamnestic effect of the substance tested.

Compound | spasmolytic activity [1] | SGPT units % X ± SE [2] | X (antiamnestic effect, C-B in percent of A-B) [3]
C=CC(C)(C)c1cc2cc3c(cc2oc1=O)OC1(C)CCC(C(C)(C)O)OC1C3 (stereo not drawn) [Clausmarin A] | showed spasmolytic activity |  | 
CN1C=C(c2ccccc2)C(c2ccccc2)C(O)C1=O (stereo not drawn) [Example 1] |  | 739 + 196 units % | 11%
